In patent US7291627B2, “Dihydroimidazo[5.1-a]-beta-carboline derivatives, method for their preparation, and their application as a drug” (MACEF, priority 2001, dated 2007):

Tests used:
JA 657 chicks = experiment: Chick sleep/sedation test (IM injection, 90 minute observation); assay type: in vivo; conditions: for Sed (sedation time as % of the period) / TA (time to torpor between injection and first stage of sleep) / TS (duration of the first sleep) / Tsed (total sedation time over the period): 90 min observation; for TS (mins) Placebo diff'ce: extension of first sleep compared with test controls
Protocol: (§1) The dihydroimidazo[5,1-a]-β-carboline derivatives of the invention, in particular those in the form of the methyl sulfonate, (soluble), were tested in chicks, and certain compounds that were active in the chick were administered in single doses to six Beagle dogs of both sexes for a polysomnographic study of at least 4 hours duration.
JA 657 chicks from Couvoir Gauguet, 44 Le Pin, were accustomed for at least 6 days to an alternating program of light and darkness with 12 hours of daylight and 12 hours of darkness at a regulated temperature of 25±2° C. They were fed ad libitum and were placed under test compounds in a vivarium in groups of 3 individuals with a mean weight of 100±10 g on the day of the test. At that age in this species, there is no effective meningeal (hemato-encephalic) barrier. The test products were injected in 3 doses (1, 3 and 10 mg/kg) intramuscularly (IM) in solution or in an aqueous suspension (1 drop of Tween 80 per ml), each to two batches of 3 chicks which were observed over 90 minutes. For each test series (18 vivaria), there was at least one batch of negative control chicks receiving the same volume (0.2 ml IM) of water for injectable preparations.
During the 90 minute observation period, the chicks were strongly stimulated every 15 minutes by presenting a full feeding trough, and each 5 minute period was given a grade from among the following 5 states, corresponding to the state of alertness over that period:
Mobile, sitting alert, drowsy, asleep, sleep-like state. The parameters studied were the time to torpor (TA) passed between injection and the first stage of sleep, the duration of the first sleep (TS) and the total sedation time over the period (Tsed), expressed in minutes and as a % of the period (Sed).
To compare the results of tests carried out at different dates, the extension of the duration of the first sleep TS compared with the test controls was recorded.

Beagle dogs = experiment: Polysomnographic study in the dog (EEG, 4 hours after oral gelule); assay type: in vivo; conditions: for Latency: Paradoxal (REM) sleep / Latency: Slow wave sleep (SWS) / Latency: Somnolence / Time passed at stage: Alertness / Time passed at stage: REM / Time passed at stage: SWS / Time passed at stage: Somnolence: oral gelule; for Time passed at stage: Alertness / Time passed at stage: REM / Time passed at stage: SWS / Time passed at stage: Somnolence: four hours of monitoring
Protocol: as §1
Polysomnographic tests were carried out for each of the three products from the series, on 6 dogs of both sexes, adults from the certified breeding kennels at HARLAN, 03 Gannat, using stainless steel electrodes surgically implanted for the duration of the test in contact with the frontal bones through the sinus, facing the motor regions of the encephalus. The Nishino et al method adapted by Tafani, Valin et al has been described elsewhere. It comprised recording two traces for eye movements, one trace for muscular movements (concentric electrode in the nape muscles) and two electroencephalographic (EEG) traces. The digital EEG trace was recorded using a Nicollet Schwarzer polygraph or the like (DELTAMED Coherence 2 and 3, MEI Galileo NT) for 4 hours after administering a 00 gelule containing 0, 16 or 48 mg of the test product (i.e. a mean of 0,1 and 3 mg/kg of live weight).
Each dog was monitored for 4 hours twice a day over two days, morning and afternoon, after one week's acclimatization to the monitoring cage, a 1 m^2, 80 cm high stainless steel cage of the SHOR-LINE type. For each dog, monitoring always commenced at the same time. A meal was distributed 30 minutes before starting monitoring.
The polysomnographic traces could differentiate between at least 4 stages for each consecutive 30 second period: awake, somnolence, slow sleep and paradoxal sleep. The latency of the appearance of each of the first nonalert episodes and the duration of each of the stages per 2 hour period were recorded for each dog. Comparing the means allowed the effect of the test products on the sleep microstructure to be studied.

Compound | Sed (sedation time as % of the period) (JA 657 chicks; Dose: 1 mg/kg) | TA (time to torpor between injection and first stage of sleep) (JA 657 chicks; Dose: 1 mg/kg) | TS (duration of the first sleep) (JA 657 chicks; Dose: 1 mg/kg) | Tsed (total sedation time over the period) (JA 657 chicks; Dose: 1 mg/kg) | TS (mins) Placebo diff'ce (JA 657 chicks; Dose: 1 mg/kg) | Sed (sedation time as % of the period) (JA 657 chicks; Dose: 3 mg/kg) | TA (time to torpor between injection and first stage of sleep) (JA 657 chicks; Dose: 3 mg/kg) | TS (duration of the first sleep) (JA 657 chicks; Dose: 3 mg/kg) | Tsed (total sedation time over the period) (JA 657 chicks; Dose: 3 mg/kg) | TS (mins) Placebo diff'ce (JA 657 chicks; Dose: 3 mg/kg) | Sed (sedation time as % of the period) (JA 657 chicks; Dose: 10 mg/kg) | TA (time to torpor between injection and first stage of sleep) (JA 657 chicks; Dose: 10 mg/kg) | TS (duration of the first sleep) (JA 657 chicks; Dose: 10 mg/kg) | Tsed (total sedation time over the period) (JA 657 chicks; Dose: 10 mg/kg) | TS (mins) Placebo diff'ce (JA 657 chicks; Dose: 10 mg/kg) | Latency: Paradoxal (REM) sleep (Beagle dogs; 1 mg) | Latency: Slow wave sleep (SWS) (Beagle dogs; 1 mg) | Latency: Somnolence (Beagle dogs; 1 mg) | Time passed at stage: Alertness (Beagle dogs; 1 mg) | Time passed at stage: REM (Beagle dogs; 1 mg) | further results
CS(=O)(=O)O.Cc1ncc2n1CCc1c-2n(C)c2ccccc12 [Example 1, 3,11-dimethyl-5,6-dihydroimidazo[5,1-a]-β-carboline methane sulfonate] | 71.7% | 7 min | 56.5 min | 64.5 min | 56 min | 87.2% | 4.5 min | 78.5 min | 78.5 min | 78 min | 96.7% | 1 min | 86 min | 87 min | 85.7 min | 101 ± 80.3 min | 52 ± 24.8 min | 47 ± 19.1 min | 139 ± 69.1 min | 23 ± 19.1 min | latency of the first somnolence (in words) (Beagle dogs; 1 and 3 mg/kg, versus placebo): clearer in the 3 mg/kg dose; Time passed at stage: SWS (Beagle dogs; 1 mg): 51 ± 42.3 min; Time passed at stage: Somnolence (Beagle dogs; 1 mg): 27 ± 10.4 min; Latency: Paradoxal (REM) sleep (Beagle dogs; 3 mg): 50 ± 22.2 min; Latency: Slow wave sleep (SWS) (Beagle dogs; 3 mg): 27 ± 8.0 min; Latency: Somnolence (Beagle dogs; 3 mg): 21 ± 7.1 min; Time passed at stage: Alertness (Beagle dogs; 3 mg): 106 ± 34.7 min; Time passed at stage: REM (Beagle dogs; 3 mg): 29 ± 13.7 min; Time passed at stage: SWS (Beagle dogs; 3 mg): 65 ± 30.2 min; Time passed at stage: Somnolence (Beagle dogs; 3 mg): 40 ± 10.9 min
COc1ccc2[nH]c3c(c2c1)CCn1c-3cnc1C.CS(=O)(=O)O [Example 2, 8-methoxy-3-methyl-5,6-dihydroimidazo[5,1-a]-β-carboline methane sulfonate] | 27.8% | 16 min | 3 min | 25 min | 3 min | 69.4% | 8.5 min | 41 min | 62.5 min | 41 min | 92.2% | 7 min | 83 min | 83 min | 83 min | 114 ± 53 min | 44 ± 16.3 min | 40 ± 14.7 min | 136 ± 40.3 min | 13.5 ± 10.6 min | Time passed at stage: SWS (Beagle dogs; 1 mg): 59 ± 20.5 min; Time passed at stage: Somnolence (Beagle dogs; 1 mg): 31 ± 4.6 min; Latency: Paradoxal (REM) sleep (Beagle dogs; 3 mg): 63 ± 21.1 min; Latency: Slow wave sleep (SWS) (Beagle dogs; 3 mg): 45 ± 5.4 min; Latency: Somnolence (Beagle dogs; 3 mg): 37 ± 6.7 min; Time passed at stage: Alertness (Beagle dogs; 3 mg): 123 ± 30.5 min; Time passed at stage: REM (Beagle dogs; 3 mg): 20 ± 9.5 min; Time passed at stage: SWS (Beagle dogs; 3 mg): 60 ± 26.9 min; Time passed at stage: Somnolence (Beagle dogs; 3 mg): 36 ± 15.4 min
CS(=O)(=O)O.Cc1ncc2n1CCc1c-2[nH]c2ccc(Cl)cc12 [Example 13, 8-chloro-3-methyl-5,6-dihydroimidazo[5,1-a]-β-carboline methane sulfonate] | 57.8% | 16.5 min | 33.5 min | 52 min | 33 min | 81.1% | 9.5 min | 73 min | 73 min | 73 min | 95.6% | 4 min | 86 min | 86 min | 85.7 min | 63 ± 28.2 min | 32 ± 11.5 min | 25 ± 11.6 min | 135 ± 44.3 min | 21 ± 13.6 min | Time passed at stage: SWS (Beagle dogs; 1 mg): 57 ± 26.5 min; Time passed at stage: Somnolence (Beagle dogs; 1 mg): 24 ± 2.6 min; Latency: Paradoxal (REM) sleep (Beagle dogs; 3 mg): 56 ± 19.5 min; Latency: Slow wave sleep (SWS) (Beagle dogs; 3 mg): 35 ± 11 min; Latency: Somnolence (Beagle dogs; 3 mg): 27 ± 9.1 min; Time passed at stage: Alertness (Beagle dogs; 3 mg): 122 ± 36.5 min; Time passed at stage: REM (Beagle dogs; 3 mg): 26 ± 13.5 min; Time passed at stage: SWS (Beagle dogs; 3 mg): 61 ± 24.9 min; Time passed at stage: Somnolence (Beagle dogs; 3 mg): 31 ± 7 min
CCn1c2c(c3cc(C)ccc31)CCn1c-2cnc1C.CS(=O)(=O)O [Example 20, 11-ethyl-3,8-dimethyl-5,6-dihydroimidazo-[5,1-a]-β-carboline methane sulfonate] | 80% | 2 min | 65.5 min | 72 min | 57 min | 79.4% | 1.5 min | 51.5 min | 71.5 min | 43.5 min | 97.2% | 1.5 min | 87.5 min | 87.5 min | 81.5 min | – | – | – | – | – | –
